From ChEMBL document CHEMBL1139030, “Inhibition of jack bean urease by organobismuth compounds” (Bioorg Med Chem Lett, 2006)
Activity calls are given as the source filed them. The calls are words filed in the database; no cut-off is given here.

Molecular target: Urease (Canavalia ensiformis) (UniProt P07374)
Test: Inhibitory activity against jack bean urease

UniProt P07374, sequence (P07374 whole entry, looked up): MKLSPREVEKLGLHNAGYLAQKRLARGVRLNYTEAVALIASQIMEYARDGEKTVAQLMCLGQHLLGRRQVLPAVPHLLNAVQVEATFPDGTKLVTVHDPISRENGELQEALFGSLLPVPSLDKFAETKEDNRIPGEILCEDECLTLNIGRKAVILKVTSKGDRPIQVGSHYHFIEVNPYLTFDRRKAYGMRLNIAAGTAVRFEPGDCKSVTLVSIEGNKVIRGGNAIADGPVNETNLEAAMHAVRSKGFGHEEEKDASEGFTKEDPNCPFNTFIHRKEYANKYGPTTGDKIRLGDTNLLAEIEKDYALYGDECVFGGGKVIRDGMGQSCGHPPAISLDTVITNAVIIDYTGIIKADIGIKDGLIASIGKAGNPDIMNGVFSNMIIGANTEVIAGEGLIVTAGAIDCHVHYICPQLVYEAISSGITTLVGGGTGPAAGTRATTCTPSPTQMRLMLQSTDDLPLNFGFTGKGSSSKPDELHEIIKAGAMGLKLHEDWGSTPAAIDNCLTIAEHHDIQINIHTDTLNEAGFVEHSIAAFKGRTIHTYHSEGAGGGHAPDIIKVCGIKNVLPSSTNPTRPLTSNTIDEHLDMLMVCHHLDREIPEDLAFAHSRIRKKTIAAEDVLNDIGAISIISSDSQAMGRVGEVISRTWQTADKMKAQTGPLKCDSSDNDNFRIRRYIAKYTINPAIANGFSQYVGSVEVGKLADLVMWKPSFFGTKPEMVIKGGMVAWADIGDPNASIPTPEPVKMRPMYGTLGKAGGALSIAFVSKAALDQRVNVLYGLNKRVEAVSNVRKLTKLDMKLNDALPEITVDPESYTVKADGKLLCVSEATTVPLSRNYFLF

Row | Substance | Activity
1 | tris(4-(trifluoromethyl)phenyl)bismuthine | Active
2 | TRIPHENYLBISMUTHINE | Active
3 | ethyl 4-{bis[4-(ethoxycarbonyl)phenyl]bismuthanyl}benzoate | Active
4 | difluorotris(2,4,6-trimethylphenyl)bismuthane | Active
5 | 4-[bis(4-cyanophenyl)bismuthanyl]benzonitrile | Active
6 | tris(4-fluorophenyl)bismuthine | Active
7 | ethyl 4-{bis[4-(ethoxycarbonyl)phenyl]difluorobismuthanyl}benzoate | Active
8 | difluorotris(4-methylphenyl)bismuthane | Active

The remaining lines, values ahead:

Row | Activity | Substance
9 | Active | difluorotris(4-fluorophenyl)bismuthane
10 | Active | 4-[bis(4-cyanophenyl)difluorobismuthanyl]benzonitrile
11 | Active | tris(4-fluorophenyl)bismuth dichloride
12 | Active | trip-tolylbismuthine
13 | Active | difluorotris[4-(trifluoromethyl)phenyl]bismuthane
14 | Active | [sequence]
